Laboratory results taken from ChEMBL document CHEMBL5465560, “Selectivity Literature for EUbOPEN Chemogenomic Library” (2024).
One block for each compound: values may come before it.

Assays:
[1] = target: TGF-beta receptor type-2 (Homo sapiens) (UniProt P37173); conditions: at 10 µM
[2] = target: T1, Mitogen-activated protein kinase 13 (Homo sapiens) (UniProt O15264); experiment: Selectivity interaction (Millipore kinase profiler) EUB0000124b MAPK13; conditions: at 10 µM
T1 sequence (whole entry): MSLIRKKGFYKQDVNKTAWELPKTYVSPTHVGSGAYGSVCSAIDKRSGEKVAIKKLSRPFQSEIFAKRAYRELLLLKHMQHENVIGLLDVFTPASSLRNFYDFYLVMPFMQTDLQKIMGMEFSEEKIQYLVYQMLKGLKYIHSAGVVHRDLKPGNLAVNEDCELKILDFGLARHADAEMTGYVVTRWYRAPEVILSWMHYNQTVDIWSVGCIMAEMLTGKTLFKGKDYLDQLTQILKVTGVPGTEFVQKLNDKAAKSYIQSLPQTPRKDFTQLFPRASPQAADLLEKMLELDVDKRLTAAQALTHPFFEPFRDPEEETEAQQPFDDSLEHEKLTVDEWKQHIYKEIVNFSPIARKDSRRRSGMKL

[3] = Selectivity interaction (ActivX KiNativ screen (kinase selectivity in THP-1 cell lysates)) EUB0000639a STLK6; conditions: Selectivity number of off-targets 5; Selectivity number of targets 283; Source Knowledge https://pubmed.ncbi.nlm.nih.gov/28498658/; at 5 µM
[4] = target: Serine/threonine-protein kinase 38 (Homo sapiens) (UniProt Q15208); experiment: Selectivity interaction (LanthaScreen Eu Kinase Binding Assay) EUB0001632a STK38; conditions: at 10 µM
[5] = target: Phosphatidylinositol 4-phosphate 3-kinase C2 domain-containing subunit alpha (Homo sapiens) (UniProt O00443); experiment: Selectivity interaction (Adapta Assay) EUB0001632a PIK3C2A; conditions: at 10 µM
[6] = target: Calcium/calmodulin-dependent protein kinase type 1D (Homo sapiens) (UniProt Q8IU85); conditions: at 10 µM
[7] = target: Tyrosine-protein kinase CSK (Homo sapiens) (UniProt P41240); experiment: Selectivity interaction (KinomeScan (DiscoverX)) EUB0001079a CSK; conditions: at 1 µM
[8] = target: Tyrosine-protein kinase Fes/Fps (Homo sapiens) (UniProt P07332); experiment: Selectivity interaction (ProQinase) EUB0000171b FES
[9] = target: T2, Mitogen-activated protein kinase kinase kinase 15 (Homo sapiens) (UniProt Q6ZN16); experiment: Selectivity interaction (KinomeScan (DiscoverX)) EUB0000045b MAP3K15
T2 sequence (whole entry): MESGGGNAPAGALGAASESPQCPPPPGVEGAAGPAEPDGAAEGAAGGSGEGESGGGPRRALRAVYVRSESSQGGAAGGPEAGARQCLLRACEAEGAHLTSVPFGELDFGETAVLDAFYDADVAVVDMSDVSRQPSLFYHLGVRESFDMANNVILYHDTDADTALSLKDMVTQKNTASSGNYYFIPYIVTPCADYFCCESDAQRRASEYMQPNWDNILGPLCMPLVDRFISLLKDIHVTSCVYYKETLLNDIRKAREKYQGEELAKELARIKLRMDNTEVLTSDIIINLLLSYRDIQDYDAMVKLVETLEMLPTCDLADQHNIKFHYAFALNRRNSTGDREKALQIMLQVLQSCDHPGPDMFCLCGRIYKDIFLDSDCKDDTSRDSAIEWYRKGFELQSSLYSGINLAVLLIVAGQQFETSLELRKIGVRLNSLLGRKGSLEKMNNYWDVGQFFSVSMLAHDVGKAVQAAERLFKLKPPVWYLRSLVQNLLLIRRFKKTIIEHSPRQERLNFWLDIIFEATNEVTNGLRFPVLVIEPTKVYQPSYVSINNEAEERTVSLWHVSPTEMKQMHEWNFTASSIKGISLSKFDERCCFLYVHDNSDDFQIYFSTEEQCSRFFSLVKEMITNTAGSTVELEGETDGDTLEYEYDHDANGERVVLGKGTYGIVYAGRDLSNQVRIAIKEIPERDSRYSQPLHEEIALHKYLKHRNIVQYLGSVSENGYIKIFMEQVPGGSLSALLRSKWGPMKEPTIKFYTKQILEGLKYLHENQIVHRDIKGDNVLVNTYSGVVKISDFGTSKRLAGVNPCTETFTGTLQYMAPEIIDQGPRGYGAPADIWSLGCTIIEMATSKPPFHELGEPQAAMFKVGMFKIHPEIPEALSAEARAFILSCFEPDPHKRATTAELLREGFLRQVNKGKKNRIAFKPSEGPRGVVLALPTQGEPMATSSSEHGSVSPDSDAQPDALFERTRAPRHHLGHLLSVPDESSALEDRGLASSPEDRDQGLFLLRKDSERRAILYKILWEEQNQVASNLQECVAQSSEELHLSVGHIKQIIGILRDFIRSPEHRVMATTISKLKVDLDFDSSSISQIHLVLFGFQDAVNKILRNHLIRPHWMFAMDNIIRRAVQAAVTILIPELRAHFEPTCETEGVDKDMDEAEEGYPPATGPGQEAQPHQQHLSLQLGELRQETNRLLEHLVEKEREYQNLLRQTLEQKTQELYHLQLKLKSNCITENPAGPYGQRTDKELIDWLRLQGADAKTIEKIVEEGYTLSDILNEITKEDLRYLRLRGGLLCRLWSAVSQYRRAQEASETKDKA

[10] = target: 5'-AMP-activated protein kinase catalytic subunit alpha-1 (Homo sapiens, UniProt Q13131); experiment: Selectivity interaction (KinomeScan (DiscoverX)) EUB0000666a PRKAA1; conditions: at 10 µM
Sequence of 5'-AMP-activated protein kinase catalytic subunit alpha-1 (Q13131 whole entry, looked up): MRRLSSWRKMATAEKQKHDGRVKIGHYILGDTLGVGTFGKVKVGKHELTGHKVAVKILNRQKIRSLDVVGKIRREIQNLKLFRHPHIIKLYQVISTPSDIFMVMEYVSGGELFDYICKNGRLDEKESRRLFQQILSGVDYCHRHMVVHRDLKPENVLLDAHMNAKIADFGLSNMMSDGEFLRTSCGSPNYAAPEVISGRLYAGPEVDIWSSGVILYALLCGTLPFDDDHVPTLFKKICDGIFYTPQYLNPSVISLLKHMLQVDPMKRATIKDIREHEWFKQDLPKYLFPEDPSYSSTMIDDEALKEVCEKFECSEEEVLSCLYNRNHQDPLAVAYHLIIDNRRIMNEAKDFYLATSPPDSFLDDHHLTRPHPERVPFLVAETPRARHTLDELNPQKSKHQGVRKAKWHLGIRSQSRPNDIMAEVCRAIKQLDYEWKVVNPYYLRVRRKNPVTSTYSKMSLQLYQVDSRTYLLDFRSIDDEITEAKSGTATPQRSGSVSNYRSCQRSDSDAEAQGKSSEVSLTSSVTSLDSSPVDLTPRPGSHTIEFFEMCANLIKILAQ

Sequence of Tyrosine-protein kinase Fes/Fps (Homo sapiens) (P07332 whole entry): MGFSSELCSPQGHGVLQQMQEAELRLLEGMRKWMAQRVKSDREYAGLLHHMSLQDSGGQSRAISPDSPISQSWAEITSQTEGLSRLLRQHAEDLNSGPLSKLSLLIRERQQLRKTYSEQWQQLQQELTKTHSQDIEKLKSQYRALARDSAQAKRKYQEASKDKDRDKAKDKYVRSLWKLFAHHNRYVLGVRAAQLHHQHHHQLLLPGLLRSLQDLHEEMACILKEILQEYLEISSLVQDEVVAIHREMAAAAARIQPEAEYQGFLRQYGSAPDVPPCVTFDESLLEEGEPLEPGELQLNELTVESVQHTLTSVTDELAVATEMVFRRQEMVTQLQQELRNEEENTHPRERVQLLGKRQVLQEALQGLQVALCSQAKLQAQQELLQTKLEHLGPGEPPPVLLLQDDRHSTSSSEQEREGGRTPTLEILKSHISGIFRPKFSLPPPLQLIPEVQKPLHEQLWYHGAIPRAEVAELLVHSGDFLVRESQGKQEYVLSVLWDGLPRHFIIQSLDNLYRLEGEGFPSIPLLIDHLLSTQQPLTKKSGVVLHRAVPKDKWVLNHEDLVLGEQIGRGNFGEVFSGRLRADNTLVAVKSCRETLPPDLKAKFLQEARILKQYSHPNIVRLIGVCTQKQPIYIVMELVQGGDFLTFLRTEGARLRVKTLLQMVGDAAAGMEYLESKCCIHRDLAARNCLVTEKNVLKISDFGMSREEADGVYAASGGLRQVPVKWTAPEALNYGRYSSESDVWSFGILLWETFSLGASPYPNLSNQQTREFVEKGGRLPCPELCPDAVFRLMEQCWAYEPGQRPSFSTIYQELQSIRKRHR
Sequence of Serine/threonine-protein kinase 38 (Homo sapiens) (Q15208 2-465 limits assumed): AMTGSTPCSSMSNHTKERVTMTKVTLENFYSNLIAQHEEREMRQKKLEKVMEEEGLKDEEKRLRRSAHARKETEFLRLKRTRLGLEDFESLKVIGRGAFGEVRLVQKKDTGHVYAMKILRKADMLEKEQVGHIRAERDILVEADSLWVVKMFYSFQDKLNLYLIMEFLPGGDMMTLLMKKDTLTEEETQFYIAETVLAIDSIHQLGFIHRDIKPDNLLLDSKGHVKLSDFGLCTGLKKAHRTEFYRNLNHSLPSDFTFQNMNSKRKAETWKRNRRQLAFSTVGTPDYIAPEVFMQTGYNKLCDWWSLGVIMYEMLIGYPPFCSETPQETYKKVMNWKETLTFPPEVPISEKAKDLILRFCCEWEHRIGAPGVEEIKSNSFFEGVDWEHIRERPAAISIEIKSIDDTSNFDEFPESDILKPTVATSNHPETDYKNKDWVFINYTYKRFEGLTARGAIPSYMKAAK
Sequence of Phosphatidylinositol 4-phosphate 3-kinase C2 domain-containing subunit alpha (Homo sapiens) (O00443 whole entry, the tested form may be a part): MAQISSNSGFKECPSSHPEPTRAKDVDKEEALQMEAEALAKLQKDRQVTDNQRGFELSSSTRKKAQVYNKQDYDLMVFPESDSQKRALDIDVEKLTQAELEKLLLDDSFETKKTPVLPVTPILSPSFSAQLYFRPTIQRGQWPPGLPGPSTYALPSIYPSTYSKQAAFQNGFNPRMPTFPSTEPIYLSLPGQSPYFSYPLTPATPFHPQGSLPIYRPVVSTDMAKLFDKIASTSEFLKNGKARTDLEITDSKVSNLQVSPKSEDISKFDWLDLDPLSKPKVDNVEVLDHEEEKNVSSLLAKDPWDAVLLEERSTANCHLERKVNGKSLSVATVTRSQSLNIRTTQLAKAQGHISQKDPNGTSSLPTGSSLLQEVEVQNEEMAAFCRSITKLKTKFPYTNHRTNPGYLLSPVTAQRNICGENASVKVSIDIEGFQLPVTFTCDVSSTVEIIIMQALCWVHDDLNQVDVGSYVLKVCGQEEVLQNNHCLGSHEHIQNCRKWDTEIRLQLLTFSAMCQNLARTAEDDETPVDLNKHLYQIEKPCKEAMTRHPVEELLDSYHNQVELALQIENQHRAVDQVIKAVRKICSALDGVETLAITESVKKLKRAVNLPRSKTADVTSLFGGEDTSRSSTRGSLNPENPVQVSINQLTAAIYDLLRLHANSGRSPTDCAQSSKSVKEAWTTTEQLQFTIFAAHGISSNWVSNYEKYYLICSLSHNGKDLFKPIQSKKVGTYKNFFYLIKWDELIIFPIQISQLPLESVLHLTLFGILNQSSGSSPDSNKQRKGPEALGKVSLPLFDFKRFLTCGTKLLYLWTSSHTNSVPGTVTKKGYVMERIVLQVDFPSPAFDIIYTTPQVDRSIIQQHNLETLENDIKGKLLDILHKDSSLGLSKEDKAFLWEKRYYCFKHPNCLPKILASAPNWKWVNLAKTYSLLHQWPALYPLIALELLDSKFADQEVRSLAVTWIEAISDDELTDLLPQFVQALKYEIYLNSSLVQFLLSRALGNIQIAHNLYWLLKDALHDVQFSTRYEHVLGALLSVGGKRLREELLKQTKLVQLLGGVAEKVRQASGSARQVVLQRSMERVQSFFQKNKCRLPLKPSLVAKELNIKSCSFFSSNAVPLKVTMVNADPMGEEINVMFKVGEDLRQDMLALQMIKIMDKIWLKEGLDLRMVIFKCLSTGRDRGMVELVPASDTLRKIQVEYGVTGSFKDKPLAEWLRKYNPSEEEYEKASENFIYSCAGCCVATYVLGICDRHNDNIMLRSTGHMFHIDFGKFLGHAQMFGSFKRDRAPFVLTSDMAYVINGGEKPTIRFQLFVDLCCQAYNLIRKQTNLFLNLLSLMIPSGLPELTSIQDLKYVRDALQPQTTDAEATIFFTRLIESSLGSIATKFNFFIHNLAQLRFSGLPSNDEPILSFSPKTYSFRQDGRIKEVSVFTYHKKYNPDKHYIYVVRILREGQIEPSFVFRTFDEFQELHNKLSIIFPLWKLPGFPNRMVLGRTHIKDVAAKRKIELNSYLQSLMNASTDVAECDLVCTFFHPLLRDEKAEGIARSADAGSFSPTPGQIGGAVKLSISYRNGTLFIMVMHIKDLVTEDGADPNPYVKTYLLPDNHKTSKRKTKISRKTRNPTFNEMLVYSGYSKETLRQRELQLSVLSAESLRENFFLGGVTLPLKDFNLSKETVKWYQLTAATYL
Sequence of Calcium/calmodulin-dependent protein kinase type 1D (Homo sapiens) (Q8IU85 whole entry, looked up): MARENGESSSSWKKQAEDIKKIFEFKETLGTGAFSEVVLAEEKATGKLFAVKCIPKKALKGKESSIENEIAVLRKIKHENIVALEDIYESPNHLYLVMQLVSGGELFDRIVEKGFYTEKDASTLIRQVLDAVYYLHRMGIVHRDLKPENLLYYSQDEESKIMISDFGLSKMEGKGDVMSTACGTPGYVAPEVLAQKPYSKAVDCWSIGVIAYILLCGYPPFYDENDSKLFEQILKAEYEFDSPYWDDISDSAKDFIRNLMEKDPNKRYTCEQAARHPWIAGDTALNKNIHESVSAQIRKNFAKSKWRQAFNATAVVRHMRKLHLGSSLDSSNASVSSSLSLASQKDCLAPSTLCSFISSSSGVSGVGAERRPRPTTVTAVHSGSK
Sequence of TGF-beta receptor type-2 (Homo sapiens) (P37173 whole entry): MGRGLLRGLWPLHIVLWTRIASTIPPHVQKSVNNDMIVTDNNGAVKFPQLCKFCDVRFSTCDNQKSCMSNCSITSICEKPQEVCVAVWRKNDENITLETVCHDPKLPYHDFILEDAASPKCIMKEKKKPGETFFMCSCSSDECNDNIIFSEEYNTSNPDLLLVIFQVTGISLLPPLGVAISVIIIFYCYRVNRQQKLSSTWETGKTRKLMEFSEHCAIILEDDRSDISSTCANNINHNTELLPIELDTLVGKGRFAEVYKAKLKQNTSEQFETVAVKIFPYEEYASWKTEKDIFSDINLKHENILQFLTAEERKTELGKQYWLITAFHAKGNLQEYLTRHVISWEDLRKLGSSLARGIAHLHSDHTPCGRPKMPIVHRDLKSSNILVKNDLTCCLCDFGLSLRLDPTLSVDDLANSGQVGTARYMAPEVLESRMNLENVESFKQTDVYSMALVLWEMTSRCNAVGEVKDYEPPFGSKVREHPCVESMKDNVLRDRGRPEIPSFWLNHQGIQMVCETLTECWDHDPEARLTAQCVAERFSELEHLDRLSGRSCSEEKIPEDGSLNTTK
Sequence of Tyrosine-protein kinase CSK (Homo sapiens) (P41240 2-450 limits assumed): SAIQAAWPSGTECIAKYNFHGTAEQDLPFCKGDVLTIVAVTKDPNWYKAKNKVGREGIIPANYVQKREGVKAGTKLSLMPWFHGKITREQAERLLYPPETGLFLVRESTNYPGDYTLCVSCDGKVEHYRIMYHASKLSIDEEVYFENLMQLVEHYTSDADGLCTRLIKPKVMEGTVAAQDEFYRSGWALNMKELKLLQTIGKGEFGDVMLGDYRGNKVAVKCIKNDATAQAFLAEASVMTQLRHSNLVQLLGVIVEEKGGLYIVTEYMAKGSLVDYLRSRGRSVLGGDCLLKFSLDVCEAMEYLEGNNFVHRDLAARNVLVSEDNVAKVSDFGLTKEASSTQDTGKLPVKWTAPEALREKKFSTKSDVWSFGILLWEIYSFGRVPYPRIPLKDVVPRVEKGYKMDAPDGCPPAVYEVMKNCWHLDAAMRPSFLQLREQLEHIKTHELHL

Structure (SMILES): Cc1cc([C@@H](C)Nc2ccccc2C(=O)O)c2nc(N3CCOCC3)cc(=O)n2c1 [AZD-6482]
% of control [1]: 95%

% of control [2]: 109%
Structure (SMILES): CC(=O)Nc1cccc(-n2c(=O)n(C3CC3)c(=O)c3c(Nc4ccc(I)cc4F)n(C)c(=O)c(C)c32)c1

Structure (SMILES): CC[C@@H]1[C@H](F)C(=O)N[C@@H]1COc1nccc2cc(C(N)=O)c(OC)cc12 [ZIMLOVISERTIB]
% of inhibition [3]: -4.2%

% of inhibition [4]: -27%
% of inhibition [5]: 5.89%
Structure (SMILES): Cn1cc(-n2cnc3c(NCc4nc5cc(Cl)c(Cl)cc5[nH]4)nc(N4CCOCC4)nc32)cn1

% of control [6]: 100%
Structure (SMILES): CCN(CC)CCCCNc1ncc2cc(-c3cc(OC)cc(OC)c3)c(NC(=O)NC(C)(C)C)nc2n1

Structure (SMILES): Nc1cnc(N2CCc3cc(S(=O)(=O)Nc4c(F)cc(Cl)cc4F)cc(N4CCCC4=O)c32)nc1 [TP-020n]
% of control [7]: 99%

% of control ([8]; at 1 µM): 88%
% of control ([8]; at 5 µM): 91%
Structure (SMILES): C=CC(=O)Nc1cccc(C(=O)Nc2ccc(Nc3cc(-c4[nH]c(SC)nc4C)ccn3)cc2)c1

Structure (SMILES): C=CC(=O)Nc1cc(-n2c(=O)ccc3cnc4ccc(-c5ccc(NS(C)(=O)=O)cc5)cc4c32)ccc1C
% of control ([9]; at 1 µM): 70%
% of control ([9]; at 10 µM): 100%

Structure (SMILES): O=C(NOC[C@H](O)CO)c1ccc(F)c(F)c1Nc1ccc(I)cc1F
% of control [10]: 100%
